Patent publication US12011444B2, “N-substituted indole derivatives as PGE2 receptor modulators” (Idorsia Pharmaceuticals Ltd, priority 2015, dated 2024)

Columns and labels:
[1] = target: EP4 (Homo sapiens (Human), UniProt P35408); test: hEP4 cAMP assay (BT549 breast cancer cells, HTRF cAMP); format: cell-based; conditions: antagonistic activity; mean values where measured multiple times
Protocol: Plate is pre-incubated 45 minutes at room temperature. Subsequently, 2.5 microliters of PGE2 (final conc. 6 nM) are transferred into the assay plate. Plate is incubated 30 minutes at room temperature.

[2] = target: EP2 (Homo sapiens (Human), UniProt P43116);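 note: antagonism of PGE2-stimulated cAMP accumulation in SF295 human glioblastoma cells with endogenous EP2, cAMP read by HTRF, expressed relative to DMSO control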
EP2, sequence (P43116 whole entry): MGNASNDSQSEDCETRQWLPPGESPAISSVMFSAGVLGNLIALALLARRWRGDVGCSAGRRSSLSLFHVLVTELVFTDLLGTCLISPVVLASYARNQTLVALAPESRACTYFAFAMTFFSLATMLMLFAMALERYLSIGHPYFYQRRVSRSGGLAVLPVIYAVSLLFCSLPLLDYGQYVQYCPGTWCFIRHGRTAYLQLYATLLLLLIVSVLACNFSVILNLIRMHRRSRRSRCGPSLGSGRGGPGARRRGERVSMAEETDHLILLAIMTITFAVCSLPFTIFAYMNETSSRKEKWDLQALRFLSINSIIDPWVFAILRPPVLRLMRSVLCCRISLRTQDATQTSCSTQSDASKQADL

[3] = target: PTGER2 (EP2) (Homo sapiens (Human), UniProt P43116); test: hEP2 b-arrestin assay (PathHunter HEK 293 PTGER2 b-arrestin cells); format: cell-based
PTGER2 (EP2), sequence (P43116 whole entry, the tested form may be a part): as the sequence (P43116 whole entry) above
Outline: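 HEK293 cells expressing ProLink-tagged EP2 and EA-fused β-arrestin 2 (enzyme fragment complementation) were seeded 24 h, pre-incubated with compound 15 min at 37 °C, then stimulated with 5 μM PGE2 (final) for 120 min.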

[4] = target: PTRGER4 (EP4) (Homo sapiens (Human), UniProt P35408); test: hEP4 b-arrestin assay (PathHunter HEK 293 PTGER4 b-arrestin cells); format: cell-based
PTRGER4 (EP4), sequence (P35408 whole entry, looked up, the tested form may be a part): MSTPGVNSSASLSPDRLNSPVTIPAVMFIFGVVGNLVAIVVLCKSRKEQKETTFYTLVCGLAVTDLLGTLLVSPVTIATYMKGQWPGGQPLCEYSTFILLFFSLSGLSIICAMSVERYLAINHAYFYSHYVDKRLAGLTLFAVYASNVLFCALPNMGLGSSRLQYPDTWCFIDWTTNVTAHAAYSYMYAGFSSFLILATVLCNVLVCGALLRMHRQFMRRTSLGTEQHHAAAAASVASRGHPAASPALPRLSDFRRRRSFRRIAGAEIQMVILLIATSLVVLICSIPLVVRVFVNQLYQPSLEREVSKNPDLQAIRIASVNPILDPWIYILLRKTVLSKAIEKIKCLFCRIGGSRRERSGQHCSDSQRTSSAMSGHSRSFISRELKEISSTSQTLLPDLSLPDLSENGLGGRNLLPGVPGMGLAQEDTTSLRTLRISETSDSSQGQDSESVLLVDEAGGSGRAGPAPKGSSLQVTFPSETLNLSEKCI
Outline: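 Stably transfected HEK293 cells carrying EP4–ProLink and β-arrestin 2–EA (β-gal fragment complementation), pre-incubated with compound 15 min at 37 °C, then stimulated with PGE2 (20 nM final) for 120 min at 37 °C. Chemiluminescence read after 1 h detection reagent at room temperature; activity per concentration expressed as percent of DMSO control.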

[5] = hEP2 b-arrestin assay (values without asterisk)
[6] = hEP4 b-arrestin assay (values without asterisk)
[7] = antagonistic activity on hEP2, mean where measured multiple times
[8] = antagonistic activity on hEP4, mean where measured multiple times

EP4, sequence (P35408 whole entry): as the sequence (P35408 whole entry, looked up, the tested form may be a part) above

| SMILES | IC50 [1] | IC50 [2] | IC50 [3, 7] | IC50 [4, 8] | other results |
| --- | --- | --- | --- | --- | --- |
| CCOc1cc(-c2cc(NCCn3c(C)cc4c(C)ccc(F)c43)ncn2)cc(Cl)c1C(=O)O [compound 433] | 108 nM | 61 nM |  |  |  |
| COc1cc(Cl)cc2c1cc(C)n2CCNc1cc(-c2ccc(-c3noc(=O)[nH]3)cc2)ncn1 [compound 679, 3-(4-{6-[2-(6-Chloro-4-methoxy-2-methyl-indol-1-yl)-ethylamino]-pyrimidin-4-yl}-phenyl)-4H-[1,2,4]oxadiazol-5-one] | 95 nM | 20 nM |  |  |  |
| Cc1cc2c(Cl)cc(Cl)cc2n1CCNc1cc(-c2ccc(-c3csc(C(=O)O)n3)cc2)ncn1 [compound 550] | 573 nM | 33 nM |  |  |  |
| COc1ccc(F)c2c1cc(C)n2CCNc1cc(-c2ccc(-c3oc(CCC(=O)O)nc3C)cc2)ncn1 [compound 652] | 136 nM | 60 nM |  |  |  |
| CCOc1cc(-c2cc(NCCn3c(C)cc4c(C)cc(F)cc43)nc(C(F)(F)F)n2)sc1C(=O)O [compound 626] | 356 nM | 51 nM |  |  |  |
| CCCCOc1cc(-c2cc(NCCn3c(C)cc4c(OC)cc(F)cc43)ncn2)ccc1C(=O)O [compound 611] | 56 nM | 4 nM |  |  |  |
| COc1cc(F)c(F)c2c1cc(C)n2CCNc1cc(-c2ccc(C(=O)O)c(CC(C)C)c2)ncn1 [compound 621] | 57 nM | 34 nM |  |  |  |
| CCCc1cc(-c2cc(NCCn3c(C)cc4cc(C)cc(F)c43)ncn2)cc(F)c1C(=O)O [compound 417] | 396 nM | 28 nM |  |  |  |
| CCCCOc1cc(-c2cc(NCCn3c(C)cc4c(OC)ccc(F)c43)ncn2)ccc1C(=O)O [compound 615] | 39 nM | 2 nM |  |  |  |
| Cc1cc(F)cc2c1cc(C)n2CCNc1cc(-c2cc(Cl)c(C(=O)O)c(OCC(F)(F)F)c2)ncn1 [compound 723] | 287 nM | 37 nM |  |  |  |
| COc1cc(F)cc2c1cc(C)n2CCNc1cc(-c2ccc(-c3nc(C(=O)O)cs3)cc2)ncn1 [compound 579] | 41 nM | 11 nM |  |  |  |
| Cc1cc2ccccc2n1CCNc1cc(-c2ccc(-c3nnn[nH]3)c(O)c2)ncn1 [Example 789, 5-{6-[2-(2-Methyl-indol-1-yl)-ethylamino]-pyrimidin-4-yl}-2-(1H-tetrazol-5-yl)-phenol] | 923 nM | 6 nM |  |  |  |
| COc1ccc(F)c2c1cc(C)n2CCNc1cc(-c2ccc3c(ccn3C)c2)ncn1 [compound 706, [2-(7-Fluoro-4-methoxy-2-methyl-indol-1-yl)-ethyl]-[6-(1-methyl-1H-indol-5-yl)-pyrimidin-4-yl]-amine] | 55 nM | 10 nM |  |  |  |
| CCOC(=O)C#Cc1ccc(-c2cc(NCCn3c(C#N)cc4c(OC)ccc(F)c43)ncn2)cc1OC [Example 1050, (4-{6-[2-(2-Cyano-7-fluoro-4-methoxy-indol-1-yl)-ethylamino]-pyrimidin-4-yl}-2-methoxy-phenyl)-propynoic acid ethyl ester] |  |  |  |  | IC50 [3, 5]: 34 nM; IC50 [4, 6]: 19 nM |
| CCOc1cc(-c2cc(NCCn3c(C#N)cc4c(OC)ccc(F)c43)ncn2)sc1CC(=O)O [Example 854, (5-{6-[2-(2-Cyano-7-fluoro-4-methoxy-indol-1-yl)-ethylamino]-pyrimidin-4-yl}-3-ethoxy-thiophen-2-yl)-acetic acid] |  |  |  |  | IC50 [3, 5]: 232 nM; IC50 [4, 6]: 193 nM |
| COc1cc(F)cc2c1cc(C)n2CCNc1cc(-c2ccc3c(c2)CC(=O)N3)ncn1 [compound 88] |  |  | 54 nM | 185 nM |  |
| COc1cc(-c2cc(NCCn3c(C)cc4c(C)cccc43)ncn2)ccc1C(=O)O [compound 35, 4-{6-[2-(2,4-Dimethyl-indol-1-yl)-ethylamino]-pyrimidin-4-yl}-2-methoxy-benzoic acid] |  |  | 15 nM | 952 nM |  |
| CCOc1cc(-c2cc(NCCn3c(C#N)cc4c(OC)ccc(F)c43)ncn2)ccc1-c1noc(=O)[nH]1 [Example 820] |  |  |  |  | IC50 [3, 5]: 6 nM; IC50 [4, 6]: 2 nM |
| COc1cccc2c1cc(C)n2CCNc1cc(-c2ccc(S(N)(=O)=O)c(C)c2)ncn1 [compound 139, 4-{6-[2-(4-Methoxy-2-methyl-indol-1-yl)-ethylamino]-pyrimidin-4-yl}-2-methyl-benzenesulfonamide] |  |  | 28 nM | 939 nM |  |

| SMILES | IC50 [1] | IC50 [2] | IC50 [3, 7] | IC50 [4, 8] | other results |
| --- | --- | --- | --- | --- | --- |
| COc1ccc(F)c2c1cc(C)n2CCNc1cc(-c2ccc3c(C(=O)O)n[nH]c3c2)ncn1 [compound 389] |  |  | 26 nM | 734 nM |  |
| CCOc1cc(-c2cc(NCCn3c(C)cc4c(OC)ccc(F)c43)ncn2)ccc1NC(C)C(=O)O (racemic) [Example 839, rac-2-(2-Ethoxy-4-{6-[2-(7-fluoro-4-methoxy-2-methyl-indol-1-yl)-ethylamino]-pyrimidin-4-yl}-phenylamino)-propionic acid] |  |  |  |  | IC50 [3, 5]: 3 nM; IC50 [4, 6]: 44 nM |
| Cc1cc(F)cc2c1cc(C)n2CCNc1cc(-c2ccc3cc[nH]c3c2)ncn1 [compound 10, [2-(6-Fluoro-2,4-dimethyl-indol-1-yl)-ethyl]-[6-(1H-indol-6-yl)-pyrimidin-4-yl]-amine] |  |  | 69 nM | 691 nM |  |
| Cc1cc(-c2ccc(-c3cc(NCCn4c(C)cc5c(C)cc(F)cc54)ncn3)cc2)n[nH]1 [compound 178, [2-(6-Fluoro-2,4-dimethyl-indol-1-yl)-ethyl]-{6-[4-(5-methyl-1H-pyrazol-3-yl)-phenyl]-pyrimidin-4-yl}-amine] |  |  | 18 nM | 168 nM |  |
| CCOc1cc(-c2cc(NCCn3c(C)cc4c(Cl)c(F)cc(Cl)c43)ncn2)ccc1C(=O)O [compound 351] |  |  | 52 nM | 688 nM |  |
| CCCN1Cc2cc(-c3cc(NCCn4c(C)cc5c(OC)cccc54)ncn3)ccc2C1=O [compound 315, 5-{6-[2-(4-Methoxy-2-methyl-indol-1-yl)-ethylamino]-pyrimidin-4-yl}-2-propyl-2,3-dihydro-isoindol-1-one] |  |  | 46 nM | 268 nM |  |
| COc1ccc(F)c2c1cc(C)n2CCNc1cc(-c2ccc3[nH]c(=O)[nH]c3c2)ncn1 [compound 74, 5-{6-[2-(7-Fluoro-4-methoxy-2-methyl-indol-1-yl)-ethylamino]-pyrimidin-4-yl}-1,3-dihydro-2H-benzo[d]imidazol-2-one] |  |  | 45 nM | 916 nM |  |
| COc1ccc(F)c2c1cc(C#N)n2CCNc1cc(-c2ccc3[nH]cnc3c2)ncn1 [Example 984, 1-{2-[6-(1H-Benzoimidazol-5-yl)-pyrimidin-4-ylamino]-ethyl}-7-fluoro-4-methoxy-1H-indole-2-carbonitrile] |  |  |  |  | IC50 [3, 5]: 8 nM; IC50 [4, 6]: 28 nM |
| CCCc1cc(-c2cc(NCCn3c(C)cc4cc(F)cc(F)c43)ncn2)ccc1C(=O)O [compound 145, 4-{6-[2-(5,7-Difluoro-2-methyl-indol-1-yl)-ethylamino]-pyrimidin-4-yl}-2-propyl-benzoic acid] |  |  | 8 nM | 302 nM |  |
| COc1ccc(F)c2c1cc(C)n2CCNc1cc(-c2ccc3c(c2)C(C)NC3=O)ncn1 (racemic) [compound 203] |  |  | 14 nM | 324 nM |  |
| Cc1cc(F)cc2c1cc(C)n2CCNc1cc(-c2ccc3cn[nH]c3c2)ncn1 [compound 7, [2-(6-Fluoro-2,4-dimethyl-indol-1-yl)-ethyl]-[6-(1H-indazol-6-yl)-pyrimidin-4-yl]-amine] |  |  | 98 nM | 556 nM |  |
| COC(=O)c1ccc(-c2cc(NCCn3c(C#N)cc4c(OC)ccc(F)c43)ncn2)cc1F [Example 999, 4-{6-[2-(2-Cyano-7-fluoro-4-methoxy-indol-1-yl)-ethylamino]-pyrimidin-4-yl}-2-fluoro-benzoic acid methyl ester] |  |  |  |  | IC50 [3, 5]: 30 nM; IC50 [4, 6]: 23 nM |
| CCOc1cc(-c2cc(NCCn3c(C)cc4c(C)ccc(Cl)c43)ncn2)ccc1C(=O)O [compound 157, 4-{6-[2-(7-Chloro-2,4-dimethyl-indol-1-yl)-ethylamino]-pyrimidin-4-yl}-2-ethoxy-benzoic acid] |  |  | 27 nM | 590 nM |  |
| COc1cc(-c2cc(NCCn3c(C#N)cc4c(OC)ccc(F)c43)ncn2)ccc1-c1cc(O)no1 [Example 855, 7-Fluoro-1-(2-{6-[4-(3-hydroxy-isoxazol-5-yl)-3-methoxy-phenyl]-pyrimidin-4-ylamino}-ethyl)-4-methoxy-1H-indole-2-carbonitrile] |  |  |  |  | IC50 [3, 5]: 6 nM; IC50 [4, 6]: 3 nM |
| CCOc1cc(-c2cc(NCCn3c(C)cc4c(OC)ccc(F)c43)ncn2)sc1NC(=O)CC [Example 1073, N-(3-Ethoxy-5-{6-[2-(7-fluoro-4-methoxy-2-methyl-indol-1-yl)-ethylamino]-pyrimidin-4-yl}-thiophen-2-yl)-propionamide] |  |  |  |  | IC50 [3, 5]: 7 nM; IC50 [4, 6]: 14 nM |
| COc1ccc(F)c2c1cc(C#N)n2CCNc1cc(-c2cccc(CC(=O)O)c2)ncn1 [Example 1004, (3-{6-[2-(2-Cyano-7-fluoro-4-methoxy-indol-1-yl)-ethylamino]-pyrimidin-4-yl}-phenyl)-acetic acid] |  |  |  |  | IC50 [3, 5]: 117 nM; IC50 [4, 6]: 144 nM |
| COc1cc(-c2cc(NCCn3c(C)cc4c(OC)cccc43)ncn2)cc(C)c1C(=O)O [compound 254] |  |  | 64 nM | 999 nM |  |
| CNc1cc(-c2cc(NCCn3c(C)cc4c(F)ccc(OC)c43)ncn2)ccc1C(=O)O [compound 252] |  |  | 57 nM | 660 nM |  |
| COc1ccc(F)c2c1cc(C#N)n2CCNc1cc(-c2ccc(C(F)(F)C(=O)O)cc2)ncn1 [Example 887, (4-{6-[2-(2-Cyano-7-fluoro-4-methoxy-indol-1-yl)-ethylamino]-pyrimidin-4-yl}-phenyl)-difluoro-acetic acid] |  |  |  |  | IC50 [3, 5]: 89 nM; IC50 [4, 6]: 177 nM |
